Measured values published in patent US10689354B2, “Aminoazole derivative” (Teijin Pharma Limited, priority 2015, dated 2020).

Columns and labels:
[1] = biological target: T1, androgen receptor (AR-LBD) (Rattus norvegicus, UniProt P15207); test: Evaluation of androgen receptor affinity (PolarScreen Androgen Receptor Competitor Assay Kit, Red; fluorescence polarization); conditions: 22° C. for 5 hours, relative to binding rate of 1 μM DHT, read-out: AR affinity (pEC50) (converted)
T1 construct: 5 μL of 2×AR-LBD/Fluoromone AL Red Complex contained in the kit; purchased Invitrogen
T1 sequence (P15207 651-882 limits assumed): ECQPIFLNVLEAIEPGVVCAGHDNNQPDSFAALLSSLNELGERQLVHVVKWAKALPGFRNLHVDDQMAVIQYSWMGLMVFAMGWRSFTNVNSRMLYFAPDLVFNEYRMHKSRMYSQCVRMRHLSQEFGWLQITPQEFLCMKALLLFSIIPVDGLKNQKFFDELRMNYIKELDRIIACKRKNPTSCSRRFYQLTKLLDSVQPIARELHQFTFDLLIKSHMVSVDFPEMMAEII
Outline: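 Test compound and the 2× AR-LBD/Fluoromone AL Red complex were combined in duplicate wells. After reacting 5 h at 22° C, polarization was measured. pEC50 was derived by 4-parameter fitting, normalizing to binding obtained with 1 μM dihydrotestosterone.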

[2] = biological target: T2, human androgen receptor (Homo sapiens, UniProt P10275); test: Reporter assay of an androgen receptor responsive sequence (luciferase, transiently transfected HEK293 cells); type: cell-based; conditions: 24 hours incubation, relative to activity of 100 nM DHT, read-out: AR transcriptive activity (pEC50) (converted)
T2 construct: expressed in transfected cells; host or cells: HEK293
T2 sequence (P10275 1-920): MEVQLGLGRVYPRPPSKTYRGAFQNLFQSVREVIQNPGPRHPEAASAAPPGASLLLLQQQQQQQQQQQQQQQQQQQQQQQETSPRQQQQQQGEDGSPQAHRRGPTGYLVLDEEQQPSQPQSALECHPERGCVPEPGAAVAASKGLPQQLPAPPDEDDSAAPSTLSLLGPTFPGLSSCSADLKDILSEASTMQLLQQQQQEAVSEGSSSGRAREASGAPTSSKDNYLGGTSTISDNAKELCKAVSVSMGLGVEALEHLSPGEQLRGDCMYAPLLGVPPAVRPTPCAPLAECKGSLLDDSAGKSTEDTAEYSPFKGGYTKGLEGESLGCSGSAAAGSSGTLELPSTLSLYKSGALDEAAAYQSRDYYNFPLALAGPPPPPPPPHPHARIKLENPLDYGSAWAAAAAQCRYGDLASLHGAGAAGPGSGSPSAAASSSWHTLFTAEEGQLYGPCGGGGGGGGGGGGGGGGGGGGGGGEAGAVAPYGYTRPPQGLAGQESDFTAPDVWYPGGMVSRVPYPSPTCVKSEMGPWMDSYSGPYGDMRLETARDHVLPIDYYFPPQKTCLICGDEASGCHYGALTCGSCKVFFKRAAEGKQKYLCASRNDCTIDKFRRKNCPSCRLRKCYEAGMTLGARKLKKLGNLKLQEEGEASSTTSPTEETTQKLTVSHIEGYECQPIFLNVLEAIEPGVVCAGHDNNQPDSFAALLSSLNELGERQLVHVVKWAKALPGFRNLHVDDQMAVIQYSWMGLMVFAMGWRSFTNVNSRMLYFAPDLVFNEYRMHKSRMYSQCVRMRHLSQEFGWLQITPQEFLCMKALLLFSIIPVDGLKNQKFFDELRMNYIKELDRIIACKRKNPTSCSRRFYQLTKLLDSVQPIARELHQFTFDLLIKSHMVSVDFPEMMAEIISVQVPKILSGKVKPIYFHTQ
Outline: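 Agonism scored as pEC50, fitted by 4-parameter curve against the response to 100 nM DHT, from dual-luciferase readout after 24 h compound treatment. Cells were HEK293 co-transfected (3 h) with human AR expression vector, androgen-responsive firefly reporter and Renilla control, in charcoal-stripped serum.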

SMILES | EC50 [1] [nM] | EC50 [2] [nM]
CS(=O)(=O)NC(=O)c1nc(N(Cc2ccccc2Cl)c2ccc(C#N)cc2)sc1Cl [Example 263, 5-chloro-2-[N-[(2-chlorophenyl)methyl]-4-cyano-anilino]-N-methylsulfonyl-thiazole-4-carboxamide] | 63.1 | 316
Cc1sc(N(Cc2cccc3ccsc23)c2ccc(C#N)cc2)nc1C(=O)NS(C)(=O)=O [Compound 378, 2-[N-(benzothiophen-7-ylmethyl)-4-cyano-anilino]-5-methyl-N-methylsulfonyl-thiazole-4-carboxamide] | 25.1 | 50.1
Cc1sc(N(Cc2ncc(C(F)(F)F)cc2F)c2ccc(C#N)cc2)nc1C(=O)NS(C)(=O)=O [Example 170, 2-[4-cyano-N-[[3-fluoro-5-(trifluoromethyl)-2-pyridyl]methyl]anilino]-5-methyl-N-methylsulfonyl-thiazole-4-carboxamide] | 63.1 | 200
Cc1sc(N(Cc2ccc(S(C)(=O)=O)cc2)c2ccc(C#N)cc2)nc1C(=O)NS(C)(=O)=O [Compound 12, 2-[4-cyano-N-[(4-methylsulfonylphenyl)methyl]anilino]-5-methyl-N-methylsulfonyl-thiazole-4-carboxamide] | 316 | > 10000
Cc1sc(N(Cc2ccc(C(F)(F)F)cn2)c2ccc(C#N)cc2)nc1C(=O)NS(C)(=O)=O [Compound 514, 2-[4-cyano-N-[[5-(trifluoromethyl)-2-pyridyl]methyl]anilino]-5-methyl-N-methylsulfonyl-thiazole-4-carboxamide] | 126 | 158
Cc1oc(N(CCc2ccc(C#N)cc2)Cc2ccc(OC(F)F)cc2)nc1C(=O)NS(C)(=O)=O [Compound 553, 2-[2-(4-cyanophenyl)ethyl-[[4-(difluoromethoxy)phenyl]methyl]amino]-5-methyl-N-methylsulfonyl-oxazole-4-carboxamide] | 31.6 | 316
Cc1sc(N(CCc2ccc(F)c(F)c2)Cc2ccccc2)nc1C(=O)NS(C)(=O)=O [Compound 148, 2-[benzyl-[2-(3,4-difluorophenyl)ethyl]amino]-5-methyl-N-methylsulfonyl-thiazole-4-carboxamide] | 25.1 | 100
Cc1sc(N(CCc2ccc(F)cc2)Cc2ccccc2)nc1C(=O)NS(C)(=O)=O [Compound 340, 2-[benzyl-[2-(4-fluorophenyl)ethyl]amino]-5-methyl-N-methylsulfonyl-thiazole-4-carboxamide] | 100 | 251
CS(=O)(=O)NC(=O)c1nc(N(Cc2ccc(OC(F)F)cc2)c2ccc(C#N)cc2)sc1Br [Example 256, 5-bromo-2-[4-cyano-N-[[4-(difluoromethoxy)phenyl]methyl]anilino]-N-methylsulfonyl-thiazole-4-carboxamide] | 50.1 | 50.1
Cc1sc(N(Cc2cccc(Cl)c2F)c2ccc(C#N)cc2)nc1C(=O)NS(C)(=O)=O [Compound 107, 2-[N-[(3-chloro-2-fluoro-phenyl)methyl]-4-cyano-anilino]-5-methyl-N-methylsulfonyl-thiazole-4-carboxamide] | 50.1 | 31.6
COC[C@@H](C)Oc1ccc(CN(c2ccc(C#N)cc2)c2nc(C(=O)NS(C)(=O)=O)c(C)s2)cc1 [Compound 583, 2-[4-cyano-N-[[4-[(1R)-2-methoxy-1-methyl-ethoxy]phenyl]methyl]anilino]-5-methyl-N-methylsulfonyl-thiazole-4-carboxamide] | 39.8 | 2000
Cc1sc(N(Cc2ccc(F)c3cccnc23)c2ccc(C#N)cc2)nc1C(=O)NS(C)(=O)=O [Example 175, 2-[4-cyano-N-[(5-fluoro-8-quinolyl)methyl]anilino]-5-methyl-N-methylsulfonyl-thiazole-4-carboxamide] | 79.4 | 126
Cc1sc(N(CCn2cc(Cl)cn2)Cc2ccccc2)nc1C(=O)NS(C)(=O)=O [Compound 709, 2-[benzyl-[2-(4-chloropyrazol-1-yl)ethyl]amino]-5-methyl-N-methylsulfonyl-thiazole-4-carboxamide] | 200 | 631
